How the values were obtained:
G154S hENT1 = biological target: T1, G154S hENT1 (Homo sapiens, UniProt Q99808, G154S); assay: [3H]-adenosine uptake in oocytes expressing G154S hENT1; format: cell-based; conditions: Fig 1g
T1 sequence (Q99808 1-456 G154S): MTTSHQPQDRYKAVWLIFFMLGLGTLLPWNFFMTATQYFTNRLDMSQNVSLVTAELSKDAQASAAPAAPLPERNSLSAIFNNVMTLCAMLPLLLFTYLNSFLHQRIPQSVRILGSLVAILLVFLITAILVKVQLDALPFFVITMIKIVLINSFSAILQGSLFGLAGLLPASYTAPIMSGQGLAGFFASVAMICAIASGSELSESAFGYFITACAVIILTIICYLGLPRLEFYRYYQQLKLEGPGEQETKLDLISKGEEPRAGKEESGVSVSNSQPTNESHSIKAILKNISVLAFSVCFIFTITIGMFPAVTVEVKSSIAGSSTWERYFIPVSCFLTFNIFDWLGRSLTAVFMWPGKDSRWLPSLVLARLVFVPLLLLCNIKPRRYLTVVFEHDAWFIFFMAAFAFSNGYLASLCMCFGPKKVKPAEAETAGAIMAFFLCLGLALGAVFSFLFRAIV

mice [1] = assay: Electrocardiogram; format: in vivo, mouse
[2] = system: mice, formalin-induced inflammatory pain; assay: Formalin-induced acute inflammatory pain; format: in vivo, mouse; conditions: i.t., JH-ENT-01 1, 10, 100 nmol, dilazep 100 nmol
mice [3] = assay: Rotarod test before and 60 min after i.t. delivery; format: in vivo, mouse; conditions: 60 min after i.t. 100 nmol
[4] = system: mice, CFA-induced inflammatory pain; assay: CFA-induced persistent inflammatory pain, von Frey test; format: in vivo, mouse; conditions: i.v., 10 mg/ml as printed; days 1, 3, 5 after CFA
[5] = system: mice with STZ-induced diabetic neuropathy; assay: STZ-induced diabetic neuropathy, mechanical pain; format: in vivo, mouse
[6] = Plasma and tissue pharmacokinetics after subcutaneous administration; format: in vivo; conditions: male, CD-1, mouse, plasma, sc
[7] = system: mice with STZ-induced diabetic neuropathy; assay: Survival of STZ mice after repeated injections; format: in vivo, mouse
[8] = system: spinal dorsal horn outer lamina II (IIo) neurons; assay: Patch clamp recording of sEPSCs in spinal cord slices of naive mice; format: cell-based, mouse; conditions: DPCPX alone 1 μM
A1R = assay: Reversal of JH-ENT-01 analgesia by A1R antagonist in STZ-treated mice; format: in vivo, mouse; conditions: i.t. 10 nmol, 30 min prior to JH-ENT-01 10 nmol
[9] = system: adenosine receptor subtypes (A1R, A2AR, A2BR, A3R); format: in vivo, mouse; conditions: i.t. 10 nmol

Row | SMILES | preferential inhibition of wild type hENT1 over G154S (G154S hENT1) | effect on heart rates (mice [1]; i.p. 10 mg/kg and 30 mg/kg) | effect on heart rates (mice [1]; i.v. 30 mg/kg, first hour) | formalin-induced 2nd phase pain [2] | formalin-induced phase 1 pain ([2]; both sexes) | motor function in rotarod test (mice [3]) | paw withdrawal frequency (PWF) [4] | paw withdrawal threshold (PWT) [4] | paw withdrawal threshold (PWT) ([5]; i.t. 10 nmol) | paw withdrawal threshold (PWT) ([5]; i.v. 30 mg/kg on days 8, 10, 12 after STZ) | neuropathic pain in the STZ model ([5]; s.c. 3 x 30 mg/kg) | Cmax [6] | death / survival of mice ([7]; i.v. 30 mg/kg, 3 injections) | survival of mice ([7]; s.c. 3 x 30 mg/kg) | sEPSC frequency and amplitude [8] | effect on analgesic action of JH-ENT-01 (PWT) (A1R) | reversal of JH-ENT-01 analgesia [9]
1 | COc1cc(C(=O)OCCCN2CCCN(CCCOC(=O)c3cc(OC)c(OC)c(OC)c3)CC2)cc(OC)c1OC [dilazep] | did not show any preference | no significant decrease | significant decrease | significant inhibition of phase 2 pain only when data from both sexes were combined | not affected | no significant changes in the falling latency | no effects | no effects | failed to elicit an increase in PWT | did not observe any analgesic effect | no effects | 409 ng/mL | 7 out of 16 | all mice survived |  |  | 
2 | CCCn1c(=O)c2[nH]c(C3CCCC3)nc2n(CCC)c1=O [DPCPX] |  |  |  |  |  |  |  |  |  |  |  |  |  |  | no effects on sEPSC frequency and amplitude | prevented | reversal

Reference: PMC11685430 (Nature Communications, 2024)
